Activity calls are given as the source filed them. The rule behind the calls is not given here.
What was measured:
Acetyl-CoA carboxylase 2 = Acetyl-CoA carboxylase 2 (Homo sapiens, UniProt O00763); experiment: Inhibition of N-terminal His-tagged human recombinant ACC2 expressed in high five insect cells by ATP consumption assay
Acetyl-CoA carboxylase 1 [1] = target: Acetyl-CoA carboxylase 1 (Homo sapiens, UniProt Q13085); experiment: Inhibition of N-terminal His-tagged human recombinant ACC1 expressed in high five insect cells by ATP consumption assay
Acetyl-CoA carboxylase 1 [2] = target: Acetyl-CoA carboxylase 1 (Rattus norvegicus, UniProt P11497); experiment: (§1) Inhibition of N-terminal His-tagged rat recombinant ACC1 expressed in high five insect cells by ATP consumption assay
[3] = (§2) Inhibition of N-terminal His-tagged rat recombinant ACC2 expressed in high five insect cells by ATP consumption assay
[4] = target: Acetyl-CoA carboxylase 1 (Rattus norvegicus) (UniProt P11497); experiment: as §1
Rattus norvegicus = species: Rattus norvegicus; experiment: as §2

Acetyl-CoA carboxylase 2, sequence (O00763 whole entry): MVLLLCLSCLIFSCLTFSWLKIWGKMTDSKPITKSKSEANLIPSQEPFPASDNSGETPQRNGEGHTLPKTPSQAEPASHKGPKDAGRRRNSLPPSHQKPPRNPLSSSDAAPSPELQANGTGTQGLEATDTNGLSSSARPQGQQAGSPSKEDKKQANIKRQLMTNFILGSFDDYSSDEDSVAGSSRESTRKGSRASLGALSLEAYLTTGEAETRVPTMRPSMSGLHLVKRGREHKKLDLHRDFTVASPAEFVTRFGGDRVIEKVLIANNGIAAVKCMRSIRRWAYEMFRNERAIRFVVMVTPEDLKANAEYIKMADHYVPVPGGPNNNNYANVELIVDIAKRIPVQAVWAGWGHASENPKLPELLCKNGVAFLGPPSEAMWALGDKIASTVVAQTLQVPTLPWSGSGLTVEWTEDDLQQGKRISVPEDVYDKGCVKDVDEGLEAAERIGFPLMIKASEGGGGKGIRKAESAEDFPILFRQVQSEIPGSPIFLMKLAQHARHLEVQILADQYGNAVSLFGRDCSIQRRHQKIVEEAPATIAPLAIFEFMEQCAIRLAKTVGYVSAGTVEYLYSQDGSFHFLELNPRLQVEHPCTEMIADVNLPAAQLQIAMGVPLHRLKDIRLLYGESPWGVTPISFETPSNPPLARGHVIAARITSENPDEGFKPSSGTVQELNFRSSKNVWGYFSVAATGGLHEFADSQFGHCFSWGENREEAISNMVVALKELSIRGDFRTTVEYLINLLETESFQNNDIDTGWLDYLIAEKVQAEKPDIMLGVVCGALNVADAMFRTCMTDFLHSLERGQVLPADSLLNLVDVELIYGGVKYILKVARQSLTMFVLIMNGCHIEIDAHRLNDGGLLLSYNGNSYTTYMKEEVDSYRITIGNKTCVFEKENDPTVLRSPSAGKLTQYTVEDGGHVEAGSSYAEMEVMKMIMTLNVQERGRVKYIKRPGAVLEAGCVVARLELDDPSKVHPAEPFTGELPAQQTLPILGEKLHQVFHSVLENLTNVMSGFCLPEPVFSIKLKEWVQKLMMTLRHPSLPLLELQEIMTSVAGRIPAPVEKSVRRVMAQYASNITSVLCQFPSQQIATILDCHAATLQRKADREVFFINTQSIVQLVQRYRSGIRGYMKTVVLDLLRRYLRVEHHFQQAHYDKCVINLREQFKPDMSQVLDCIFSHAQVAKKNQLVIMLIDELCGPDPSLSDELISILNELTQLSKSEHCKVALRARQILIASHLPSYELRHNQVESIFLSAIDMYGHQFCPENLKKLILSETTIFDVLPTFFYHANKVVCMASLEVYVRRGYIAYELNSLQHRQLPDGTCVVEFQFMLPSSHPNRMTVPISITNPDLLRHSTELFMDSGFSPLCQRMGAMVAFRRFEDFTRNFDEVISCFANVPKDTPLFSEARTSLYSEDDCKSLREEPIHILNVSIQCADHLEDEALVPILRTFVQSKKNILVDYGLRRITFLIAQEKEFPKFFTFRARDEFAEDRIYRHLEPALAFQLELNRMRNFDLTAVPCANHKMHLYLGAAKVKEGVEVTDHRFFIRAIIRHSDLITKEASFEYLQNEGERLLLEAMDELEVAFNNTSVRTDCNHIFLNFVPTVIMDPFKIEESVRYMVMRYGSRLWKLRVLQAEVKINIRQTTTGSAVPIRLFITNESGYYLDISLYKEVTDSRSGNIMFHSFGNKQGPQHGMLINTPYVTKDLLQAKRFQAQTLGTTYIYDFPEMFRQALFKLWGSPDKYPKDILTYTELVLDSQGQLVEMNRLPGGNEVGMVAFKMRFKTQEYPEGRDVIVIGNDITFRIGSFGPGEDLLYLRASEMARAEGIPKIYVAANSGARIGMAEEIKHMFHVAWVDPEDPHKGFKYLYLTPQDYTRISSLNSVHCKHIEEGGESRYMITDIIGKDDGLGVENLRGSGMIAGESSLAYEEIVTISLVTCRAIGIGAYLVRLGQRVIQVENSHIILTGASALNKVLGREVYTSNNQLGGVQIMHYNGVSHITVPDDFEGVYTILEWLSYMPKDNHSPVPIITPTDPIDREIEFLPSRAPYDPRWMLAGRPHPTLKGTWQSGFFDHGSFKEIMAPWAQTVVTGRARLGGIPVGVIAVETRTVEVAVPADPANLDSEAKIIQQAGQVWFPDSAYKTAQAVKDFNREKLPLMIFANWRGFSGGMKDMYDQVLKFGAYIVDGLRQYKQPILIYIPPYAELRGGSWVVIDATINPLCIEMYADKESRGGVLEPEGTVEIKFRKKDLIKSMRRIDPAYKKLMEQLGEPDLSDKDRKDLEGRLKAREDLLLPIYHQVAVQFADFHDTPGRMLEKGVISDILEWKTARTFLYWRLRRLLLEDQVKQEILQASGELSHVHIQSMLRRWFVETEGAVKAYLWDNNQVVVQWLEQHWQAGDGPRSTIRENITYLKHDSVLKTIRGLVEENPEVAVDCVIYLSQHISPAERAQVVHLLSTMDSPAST

SMILES	IC50 (Acetyl-CoA carboxylase 2) [nM]	IC50 (Acetyl-CoA carboxylase 1 [1]) [nM]	IC50 (Acetyl-CoA carboxylase 1 [2]) [nM]	inhibition (Acetyl-CoA carboxylase 1 [1])	inhibition [4]	IC50 [3] [nM]	inhibition (Rattus norvegicus)
CC(=O)NCCC[C@H]1OC[C@H](Oc2ccc(OCc3ccccc3)cc2)CO1		> 30000	> 30000			> 30000	
CC(=O)N[C@H](C)CCc1ccc(Oc2ccc(OCc3ccccc3)cn2)cc1	> 30000						
CC(=O)NC(C)CCc1ccc(OC2=NCC(OC(C)C)N=C2)cc1 (centres undefined)	1200	> 30000	> 30000			> 30000	
CC(=O)NCCCc1ccc(Oc2ccc(OC3CCCC3)cn2)cc1	1280	> 30000	> 30000			> 30000	
CC(=O)NCCCC1OCC(Cc2cccc(OCCc3ccccc3)c2)CO1 (centres undefined)	2100	> 30000	> 30000			> 30000	
CC(=O)NCCCC1OCC(c2cccc3cc(OC4CCCC4)ccc23)CO1 (centres undefined)	630	> 30000	> 30000	inactive	inactive	> 30000	inactive
CC(=O)N[C@@H](C)C#Cc1cnc(Oc2ccc(OC(C)C)cc2)s1	60	> 10000	> 10000			380	
CC(=O)NCCC[C@H]1OC[C@@H](Oc2ccc(OCc3ccccc3)cc2)CO1	> 30000						
CC(=O)NCCCC1OCC(Cc2cccc(OCC3CCC3)c2)CO1 (centres undefined)	700	21000	> 30000			> 30000	
CC(=O)NCCCC1OCC(Cc2cccc(OCCC3CC3)c2)CO1 (centres undefined)	2650	> 30000	> 30000			> 30000	
CC(=O)N[C@H](C)CCc1ccc(Oc2ccc(OC(C)C)nc2)cc1	7800	9900	> 30000			> 30000	
CC(=O)NCCC[C@H]1OC[C@H](Oc2ccc(OCc3ccccc3)cn2)CO1	70	14600	14000			> 30000	
CC(=O)NC(C)CCc1ccc(Oc2ccc(OC(C)C)nn2)cc1 (centres undefined)	6700	12700	> 30000			> 30000	

Second part, led by results:

IC50 (Acetyl-CoA carboxylase 2) [nM]	IC50 (Acetyl-CoA carboxylase 1 [1]) [nM]	IC50 (Acetyl-CoA carboxylase 1 [2]) [nM]	inhibition (Acetyl-CoA carboxylase 1 [1])	inhibition [4]	SMILES	IC50 [3] [nM]	inhibition (Rattus norvegicus)
80	360	800			CC(C)Oc1ccc(Oc2ccc(CC[C@H](C)NC(=O)C3CC3)cc2)cn1	700	
80	1100	700			CC(=O)NC(C)CCc1ccc(Oc2ccc(OCc3ccccc3)nc2)cc1 (centres undefined)	7900	
60	2300	10500			CC(=O)N[C@@H](C)CO[C@H]1CC[C@H](Oc2ccc(OC(C)C)nc2)CC1	600	
	5700	11000			CC(CCc1ccc(Oc2ccc(OC(C)C)nc2)cc1)NC=O (centres undefined)	17000	
210	750	2100			CC(=O)NC(C)CCc1ccc(Oc2ccc(OCc3ccccc3)cn2)cc1 (centres undefined)	> 30000	
190	3900	13000			CC(=O)NCCC[C@H]1OC[C@H](Oc2ccc(OC3CCCC3)cc2)CO1	12000	
190	620	3200			CC(CCc1ccc(Oc2ccc(OC(C)C)nc2)cc1)NC(=O)C1CC1 (centres undefined)	1900	
	1200	2900			CC(CCc1ccc(Oc2ccc(OC(C)C)nc2)cc1)NC(N)=O (centres undefined)	3000	
250	1200	2900			COC(=O)NC(C)CCc1ccc(Oc2ccc(OC(C)C)nc2)cc1 (centres undefined)	3900	
700	3000	7400			CC(=O)NC(C)CCc1ccc(Oc2cnc(OC(C)C)nc2)cc1 (centres undefined)	20000	
	1100	2900			CC(=O)NC(C)CCc1ccc(Oc2ccc(OC3CCCC3)cn2)cc1 (centres undefined)	7900	
	920	1200			CC(=O)N[C@@H](C)CCc1ccc(Oc2ccc(OCc3ccccc3)cn2)cc1	> 30000	
270	2700	25000			CC(=O)NCCCC1OCC(Cc2cccc(OCCC3CCCC3)c2)CO1 (centres undefined)	17000	
	1800	2600			CC(=O)N[C@@H](C)CCc1ccc(Oc2ccc(OC(C)C)cn2)cc1	6750	
15	140	1140			CC(=O)N[C@@H](C)CC[C@H]1CC[C@H](Oc2ccc(OC(C)C)nc2)CC1	200	
70	910				O=C(c1c2ccccc2cc2ccccc12)N1CCC(N2CCC[C@@H](C(=O)N3CCOCC3)C2)CC1	280	
	1780	2600			CC(=O)NC(C)CCc1ccc(Oc2ccc(OC(C)C)cn2)cc1 (centres undefined)	4520	

— ChEMBL document CHEMBL1629448, “Identification and synthesis of novel inhibitors of acetyl-CoA carboxylase with in vitro and in vivo efficacy on fat oxidation” (J Med Chem, 2010)
